Test system: PD-L1
Assay: Immunoblots for PD-L1 in PTEN-deficient GBM cells
Type: cell-based, human and mouse
Settings: immunoblot; U87, PTEN-KO SF763, CT2A, 005 GSC, GSC23, GSC7-10; 24 hours
Procedure: Cell Culture. The GBM cell lines U87, U251, SF763, LN229, and CT2A, as well as 293T cells were cultured in Dulbecco's Modified Eagle's Medium (DMEM; Gibco, #11995-065). The mouse glioma cell line GL261 cells and SIM-A9 microglia were cultured in Dulbecco's Modified Eagle Medium-Ham's F12 medium (Gibco, #10565-018). HMC3 microglia were cultured in Eagle's Minimum Essential Medium (ATCC, #30-2003). THP-1 macrophages were cultured in RPMI 1640 medium (Gibco, #11875093). All cell lines were cultured in the indicated medium containing 10% fetal bovine serum (FBS; Fisher Scientific, #16140071) and 1:100 antibiotic-antimycotic (Gibco, #15140-122), and were purchased from the American Type Culture Collection (ATCC). Human GSCs (GSC23 and GSC7-10) and mouse GBM tumor-derived 005 GSCs and QPP7 GSCs were cultured in neural stem cell (NSC) proliferation media (Millipore, #SCM005) containing 20 ng/mL epidermal growth factor (EGF; PeproTech, #AF-100-15) and basic fibroblast growth factor (bFGF; PeproTech, #100-18B). Human GSCs were gifted by Dr. Frederick F. Lang from the Brain Tumor Center (The University of Texas MD Anderson Cancer Center). 005 GSCs and QPP7 GSCs were provided by Dr. Samuel D. Rabkin (Massachusetts General Hospital) and Dr. Jian Hu (The University of Texas MD Anderson Cancer Center), respectively. PTEN CRISPR KO in SF763 and LN229 cells were generated. […]

Compound: N#CCCN [BAPN, β-aminopropionitrile]
- expression of PD-L1: upregulated
